Active and inactive are the calls of the source. The rule behind the calls is not given here.
Columns and labels:
[1] = tested on: Mus musculus; assay: Antinociceptive activity in Swiss mouse assessed inhibition of formaldehyde-induced paw licking at 0.31 mmol/kg, ip administered 30 mins prior to formaldehyde-challenge measured from 15 to 30 mins; type: functional, organism-based
[2] = n-Octanol-water distribution coefficient, log K of the compound by shake flask method; type: physicochemical; conditions: read-out: log KOW
[3] = tested on: Mus musculus; assay: Antinociceptive activity in Swiss mouse assessed as inhibition of zymosan A-induced writhing response at 0.31 mmol/kg, ip administered 30 mins prior to zymosan A-challenge; type: functional, organism-based
[4] = tested on: Mus musculus; assay: Antinociceptive activity in Swiss mouse assessed as inhibition of zymosan A-induced writhing response at 0.62 mmol/kg, ip administered 30 mins prior to zymosan A-challenge; type: functional, organism-based
[5] = tested on: Mus musculus; assay: Antinociceptive activity in ip dosed Swiss mouse assessed as inhibition of zymosan A-induced writhing response administered 30 mins prior to zymosan A-challenge; type: functional
[6] = tested on: Mus musculus; assay: Antinociceptive activity in Swiss mouse assessed inhibition of formaldehyde-induced paw licking at 0.62 mmol/kg, ip administered 30 mins prior to formaldehyde-challenge measured from 15 to 30 mins; type: functional, organism-based
[7] = tested on: Rattus norvegicus; assay: Antiinflammatory activity in Wistar rat assessed as inhibition of carrageenan-induced paw edema at 0.31 mmol/kg, ip administered 30 mins prior to carrageenan-challenge measured at 2 hrs; type: functional, organism-based
[8] = tested on: Rattus norvegicus; assay: Antiinflammatory activity in Wistar rat assessed as inhibition of carrageenan-induced paw edema at 0.62 mmol/kg, ip administered 30 mins prior to carrageenan-challenge measured at 2 hrs; type: functional, organism-based
[9] = tested on: Rattus norvegicus; assay: Antiinflammatory activity in Wistar rat assessed as inhibition of carrageenan-induced paw edema at 0.31 mmol/kg, ip administered 30 mins prior to carrageenan-challenge measured up to 6 hrs; type: functional, organism-based
[10] = tested on: Rattus norvegicus; assay: Antiinflammatory activity in Wistar rat assessed as inhibition of carrageenan-induced paw edema at 0.62 mmol/kg, ip administered 30 mins prior to carrageenan-challenge measured up to 6 hrs; type: functional, organism-based
[11] = tested on: Mus musculus; assay: Neurotoxicity in Swiss mouse assessed as motor coordination by measuring change in time spent on rotating rod at 0.62 mmol/kg, ip administered 30 mins prior to testing; type: toxicity, organism-based; conditions: in vivo, 0.5 h
[12] = tested on: Mus musculus; assay: Antinociceptive activity in Swiss mouse assessed inhibition of formaldehyde-induced paw licking at 0.62 mmol/kg, ip administered 30 mins prior to formaldehyde-challenge measured up to 5 mins; type: functional, organism-based
[13] = tested on: Mus musculus; assay: Antinociceptive activity in Swiss mouse assessed inhibition of formaldehyde-induced paw licking at 0.31 mmol/kg, ip administered 30 mins prior to formaldehyde-challenge measured up to 5 mins; type: functional, organism-based
[14] = tested on: Mus musculus; assay: Antinociceptive activity in Swiss mouse assessed as inhibition of zymosan A-induced writhing response at 0.16 mmol/kg, ip administered 30 mins prior to zymosan A-challenge; type: functional, organism-based

Row | SMILES | inhibition [1] | logP [2] | inhibition [3] | inhibition [4] | inhibition [9] | inhibition [10] | inhibition [13] | further results
1 | O=Cc1ccccc1 | inactive | – | – | – | – | – | – | –
2 | NC(=O)N/N=C/c1ccc(O)cc1 | – | 0.31 | inactive | inactive | – | – | – | –
3 | NC(=O)N/N=C/c1ccccc1O | – | 0.85 | Active | Active | inactive | inactive | – | MED [5]: 0.16 mmol/kg; inhibition [6]: Active; inhibition [7]: Active; inhibition [8]: Active; Activity [11]: Non-toxic; inhibition [12]: inactive
4 | NNC(N)=O | Active | – | – | – | Active | Active | inactive | –
5 | NC(=O)N/N=C/c1ccccc1 | Active | 0.91 | – | – | inactive | inactive | Active | inhibition [14]: inactive
6 | NC(=O)N/N=C/c1cccc(O)c1 | – | 0.43 | inactive | inactive | – | – | – | –
